Experimental data published in ChEMBL document CHEMBL2040734, “Benzothiazoles: search for anticancer agents” (2012).

Columns and labels:
Assay type in all cases: functional
U-251 = assay: Cytotoxicity against human U251 cells assessed as cell growth at 10 '-5 M after 48 hrs by sulforhodamine B assay; conditions: U-251, 48 h, read-out: Activity
NCI-H226 [1] = assay: Cytotoxicity against human NCI-H226 cells assessed as cell growth at 100 uM after 48 hrs by sulforhodamine B assay; conditions: NCI-H226, 48 h, read-out: Activity
NCI-H226 [2] = assay: Cytotoxicity against human NCI-H226 cells assessed as cell growth at 1 uM after 48 hrs by sulforhodamine B assay; conditions: NCI-H226, 48 h, read-out: Activity

Row | Structure (SMILES) | growth at 10 µM (U-251) [%] | growth at 100 µM (NCI-H226 [1]) [%] | growth at 1 µM (NCI-H226 [2]) [%]
1 | Cc1ccc2nc(Nc3c(C)cccc3C)sc2c1 | 34 |  | 
2 | Clc1cccc(Cl)c1Nc1nc2cccc(Cl)c2s1 |  | -72 | -9
